Test results from patent publication US11559510B2, “Isoflavonoid composition with improved pharmacokinetics” (NOXOPHARM LIMITED, priority 2016, dated 2023).
Where two headings read alike, the source gives them in different places.

Assay: Plasma pharmacokinetic studies of idronoxil in rats (rectal in cocoa butter vs intestinal in lipid emulsion)
Type: in vivo, Male Sprague-Dawley rats
Conditions: for Peak Area in rat plasma, Rat 2 / Peak Area in rat plasma, Rat 1 / Peak Area in rat plasma, Rat 3 / half-life / concentration at 0 h / concentration at 1 h / concentration at 2 h / concentration at 3 h / concentration at 4 h / concentration at 5 h / concentration at 6 h / concentration at 7 h / concentration at 8 h: 10 mg/kg; for half-life / concentration at 0 h / concentration at 1 h / concentration at 2 h / concentration at 3 h / concentration at 4 h / concentration at 5 h / concentration at 6 h / concentration at 7 h / concentration at 8 h: male, Sprague-Dawley, rat, plasma
Procedure: The objective of this study in rodents is to determine the plasma pharmacokinetics of idronoxil after rectal delivery and intestinal delivery in lipids (cocoa butter or emulsion).
Part (1); n=3 rats: Rectal administration of idronoxil in cocoa butter liquid formulation, collection of plasma.
Part (2); n=3 rats: Intestinal administration (intraduodenal infusion) of idronoxil in lipid formulation, collection of plasma.
3 mg idronoxil per rat (equivalent to 10 mg/kg idronoxil).
Preparation of lipid formulation for intestinal dosing: Briefly, 3 mg of idronoxil, 80 mg oleic acid and 50 mg Tween 80 were mixed in a glass vial as the lipid phase. An aqueous phase consisting of 5.6 mL phosphate buffered saline (PBS, pH 7.4) was subsequently added to the lipid phase and the formulation emulsified by ultrasonication with a Misonix XL 2020 ultrasonic processor equipped with a 3.2-mm microprobe tip running at an amplitude of 240 μm and a frequency of 20 kHz for 4 min at room temperature.
Dose administration: The lipid formulations were infused into the duodenum of the rats at 2.8 mL/h for 2 h. After that, normal saline was infused into the duodenum at 2.8 mL/h for the remainder of the experiment to hydrate the animals.
Preparation of cocoa butter formulation for rectal dosing: Briefly, 100 mg of the cocoa butter was weighed into a homogenizer glass tube and melted at 32 degrees Celsius. 3 mg of idronoxil was then added and the formulation mixed manually with the homogenizer.
Dose administration: The warmed/melted cocoa butter formulations were dosed into the rectum via placing the tip of a 3 cm plastic mouse oral gavage device attached to a 1 ml plastic syringe exactly 1 cm into the rectum. The formulation was dosed over 15 sec. After that, normal saline was infused into the duodenum at 2.8 mL/h for the remainder of the experiment to hydrate the animals.
Male Sprague-Dawley rats (n=3 per group, body weight 300±40 g) were used in the study. Each animal was fasted overnight prior to surgical cannulation of the carotid artery and duodenum.
The rats were anaesthetized (using isoflurane anesthesia), placed on a heated pad at 37° C. and cannulas were inserted into the duodenum (for dosing of lipid formulation and rehydration) and carotid artery (for blood collection).
Post-surgery, rats were re-hydrated for 0.5 h via intraduodenal infusion of normal saline at 2.8 mL/h prior to dosing via intraduodenal or rectal route.
Plasma collection: Plasma samples were collected for 8 h into Eppendorf tubes containing 5 μL of 1,000 IU/mL heparin. Aliquots (20 μL) of each hourly collected samples were transferred into labelled 1.5 mL Eppendorf tubes. Aliquoted and original bulk samples were stored at −20° C. until analysis.
Sample analysis: Plasma concentrations of idronoxil were measured by the HMST-lab using a validated HPLC-MS/MS method. Briefly, LC-MS analysis was performed on a Shimadzu 8050 triple quadrupole mass spectrometer coupled with a Shimadzu Nexera X2 UHPLC. MS analysis was conducted in positive mode electrospray ionisation and quantitation of the analytes performed in MRM mode. The column employed was a Phenomenex Kinetex EVO C18 column (2.6 μm particle size, 50×2.1 mm i.d.) equipped with a Phenomenex Security Guard column with C18 packing material. The column was maintained at 40-C. The mobile phase consisted of 0.2% formic acid in water (Mobile Phase A) and 100% acetonitrile (Mobile Phase B). Separations were conducted using a flow rate of 0.4 mL/min and an injection volume of 6 μL. Samples were controlled in the autosampler at a temperature of 10° C.
Non-compartmental pharmacokinetic (PK) analysis: The elimination rate constant (slope), half-life (i.e., 0.693/k), and mean residence time (MRT) were calculated using excel. The area under the plasma-concentration time curves from time zero to 8 h (AUC0-8 h) were calculated using the trapezoid rule to the last measured time point.

[1] = Intestinal administration of idronoxil, lipid emulsion, 1 hrs
[2] = Intestinal administration of idronoxil, lipid emulsion, 2 hrs
[3] = Intestinal administration of idronoxil, lipid emulsion, 3 hrs
[4] = Intestinal administration of idronoxil, lipid emulsion, 4 hrs
[5] = Intestinal administration of idronoxil, lipid emulsion, 5 hrs
[6] = Intestinal administration of idronoxil, lipid emulsion, 6 hrs
[7] = Intestinal administration of idronoxil, lipid emulsion, 7 hrs
[8] = Intestinal administration of idronoxil, lipid emulsion, 8 hrs
[9] = Rectal administration of idronoxil, cocoa butter, 1 hrs
[10] = Rectal administration of idronoxil, cocoa butter, 2 hrs
[11] = Rectal administration of idronoxil, cocoa butter, 3 hrs
[12] = Rectal administration of idronoxil, cocoa butter, 4 hrs
[13] = Rectal administration of idronoxil, cocoa butter, 5 hrs
[14] = Rectal administration of idronoxil, cocoa butter, 6 hrs
[15] = Rectal administration of idronoxil, cocoa butter, 7 hrs
[16] = Rectal administration of idronoxil, cocoa butter, 8 hrs
[17] = intestinally-dosed rats compared with rectally-dosed rats
[18] = oral delivery (intestinal delivery model)
[19] = other: intraduodenal infusion, Intestinal delivery (intraduodenal infusion), lipid emulsion, read-out: Idronoxil Plasma Concentration Mean
[20] = other: intraduodenal infusion, Intestinal delivery (intraduodenal infusion), lipid emulsion, read-out: Idronoxil Plasma Concentration Rat 2
[21] = other: intraduodenal infusion, Intestinal delivery (intraduodenal infusion), lipid emulsion, read-out: Idronoxil Plasma Concentration Rat 1
[22] = other: intraduodenal infusion, Intestinal delivery (intraduodenal infusion), lipid emulsion, read-out: Idronoxil Plasma Concentration Rat 3
[23] = other: rectal, Rectal delivery, cocoa butter, read-out: Idronoxil Plasma Concentration Mean
[24] = other: rectal, Rectal delivery, cocoa butter, read-out: Idronoxil Plasma Concentration Rat 1
[25] = other: rectal, Rectal delivery, cocoa butter, read-out: Idronoxil Plasma Concentration Rat 2
[26] = other: rectal, Rectal delivery, cocoa butter, read-out: Idronoxil Plasma Concentration Rat 3

Oc1ccc(C2=Cc3ccc(O)cc3OC2)cc1 [Idronoxil, 2H-1-Benzopyran-7-0,1,3-(4-hydroxyphenyl)]
Peak Area in rat plasma, Rat 2 (Intestinal administration of idronoxil, lipid emulsion, 0 hrs): 62,126 | Peak Area in rat plasma, Rat 1 [1]: 236,465 | Peak Area in rat plasma, Rat 2 [1]: 184,114 | Peak Area in rat plasma, Rat 3 [1]: 222,037 | Peak Area in rat plasma, Rat 1 [2]: 335,894 | Peak Area in rat plasma, Rat 2 [2]: 238,289 | Peak Area in rat plasma, Rat 3 [2]: 237,900 | Peak Area in rat plasma, Rat 1 [3]: 34,094 | Peak Area in rat plasma, Rat 2 [3]: 71,267 | Peak Area in rat plasma, Rat 3 [3]: 32,152 | Peak Area in rat plasma, Rat 1 [4]: 25,198 | Peak Area in rat plasma, Rat 2 [4]: 14,571 | Peak Area in rat plasma, Rat 3 [4]: 13,053 | Peak Area in rat plasma, Rat 1 [5]: 26,342 | Peak Area in rat plasma, Rat 2 [5]: 10,183 | Peak Area in rat plasma, Rat 3 [5]: 13,297 | Peak Area in rat plasma, Rat 1 [6]: 6,108 | Peak Area in rat plasma, Rat 2 [6]: 8,531 | Peak Area in rat plasma, Rat 3 [6]: 17,321 | Peak Area in rat plasma, Rat 1 [7]: 8,023 | Peak Area in rat plasma, Rat 2 [7]: 14,276 | Peak Area in rat plasma, Rat 3 [7]: 8,371 | Peak Area in rat plasma, Rat 1 [8]: 13,012 | Peak Area in rat plasma, Rat 2 [8]: 9,110 | Peak Area in rat plasma, Rat 3 [8]: 8,020 | Peak Area in rat plasma, Rat 1 [9]: 57,590 | Peak Area in rat plasma, Rat 2 [9]: 213,825 | Peak Area in rat plasma, Rat 3 [9]: 46,167 | Peak Area in rat plasma, Rat 1 [10]: 37,493 | Peak Area in rat plasma, Rat 2 [10]: 179,554 | Peak Area in rat plasma, Rat 3 [10]: 50,847 | Peak Area in rat plasma, Rat 1 [11]: 37,603 | Peak Area in rat plasma, Rat 2 [11]: 152,537 | Peak Area in rat plasma, Rat 3 [11]: 45,812 | Peak Area in rat plasma, Rat 1 [12]: 34,050 | Peak Area in rat plasma, Rat 2 [12]: 117,814 | Peak Area in rat plasma, Rat 3 [12]: 49,738 | Peak Area in rat plasma, Rat 1 [13]: 61,323 | Peak Area in rat plasma, Rat 2 [13]: 153,360 | Peak Area in rat plasma, Rat 3 [13]: 75,786 | Peak Area in rat plasma, Rat 1 [14]: 41,246 | Peak Area in rat plasma, Rat 2 [14]: 114,191 | Peak Area in rat plasma, Rat 3 [14]: 42,370 | Peak Area in rat plasma, Rat 1 [15]: 46,844 | Peak Area in rat plasma, Rat 2 [15]: 100,506 | Peak Area in rat plasma, Rat 3 [15]: 25,104 | Peak Area in rat plasma, Rat 1 [16]: 14,934 | Peak Area in rat plasma, Rat 2 [16]: 80,236 | Peak Area in rat plasma, Rat 3 [16]: 40,752 | amount of idronoxil observed in plasma, rectal relative to oral administration (at 3 to 4 hours after administration): 3 to 4 times | time for which blood levels >20 ng/mL were achieved (idronoxil dosed orally (intestinal delivery model)): about 3 hours | time from administration by which the bulk of the total exposure is completed (intestinally-dosed rats): about 3 hours | maximum concentration of free idronoxil [17]: significantly greater | proportion of drug metabolized by Phase 2 metabolism [17]: considerably greater | half-life [18]: ~45 min | half-life (rectal idronoxil): > 480 min | concentration at 0 h [19]: 33.8 ng/mL | concentration at 0 h [20]: 33.8 ng/mL | concentration at 1 h [19]: 118 ng/mL | concentration at 1 h [21]: 114 ng/mL | concentration at 1 h [20]: 114 ng/mL | concentration at 1 h [22]: 128 ng/mL | concentration at 2 h [19]: 158 ng/mL | concentration at 2 h [21]: 200 ng/mL | concentration at 2 h [20]: 140 ng/mL | concentration at 2 h [22]: 136 ng/mL | concentration at 3 h [19]: 24.3 ng/mL | concentration at 3 h [21]: 17.8 ng/mL | concentration at 3 h [20]: 38.2 ng/mL | concentration at 3 h [22]: 16.8 ng/mL | concentration at 4 h [19]: 9.57 ng/mL | concentration at 4 h [21]: 16.1 ng/mL | concentration at 4 h [20]: 7.03 ng/mL | concentration at 4 h [22]: 5.62 ng/mL | concentration at 5 h [19]: 9.27 ng/mL | concentration at 5 h [21]: 17.4 ng/mL | concentration at 5 h [20]: 4.46 ng/mL | concentration at 5 h [22]: 6 ng/mL | concentration at 6 h [19]: 4.79 ng/mL | concentration at 6 h [21]: 2.86 ng/mL | concentration at 6 h [20]: 3.79 ng/mL | concentration at 6 h [22]: 7.72 ng/mL | concentration at 7 h [19]: 5.04 ng/mL | concentration at 7 h [21]: 4.68 ng/mL | concentration at 7 h [20]: 6.75 ng/mL | concentration at 7 h [22]: 3.7 ng/mL | concentration at 8 h [19]: 5.14 ng/mL | concentration at 8 h [21]: 7.83 ng/mL | concentration at 8 h [20]: 4.23 ng/mL | concentration at 8 h [22]: 3.37 ng/mL | concentration at 0 h [23]: 0 ng/mL | concentration at 1 h [23]: 49.4 ng/mL | concentration at 1 h [24]: 26.7 ng/mL | concentration at 1 h [25]: 96.5 ng/mL | concentration at 1 h [26]: 24.9 ng/mL | concentration at 2 h [23]: 42.9 ng/mL | concentration at 2 h [24]: 15.9 ng/mL | concentration at 2 h [25]: 88.1 ng/mL | concentration at 2 h [26]: 24.7 ng/mL | concentration at 3 h [23]: 37.3 ng/mL | concentration at 3 h [24]: 15.9 ng/mL | concentration at 3 h [25]: 74.2 ng/mL | concentration at 3 h [26]: 21.8 ng/mL | concentration at 4 h [23]: 30.1 ng/mL | concentration at 4 h [24]: 14.4 ng/mL | concentration at 4 h [25]: 53.7 ng/mL | concentration at 4 h [26]: 22.3 ng/mL | concentration at 5 h [23]: 46.3 ng/mL | concentration at 5 h [24]: 27.9 ng/mL | concentration at 5 h [25]: 71.4 ng/mL | concentration at 5 h [26]: 39.5 ng/mL | concentration at 6 h [23]: 30.2 ng/mL | concentration at 6 h [24]: 17.8 ng/mL | concentration at 6 h [25]: 51.3 ng/mL | concentration at 6 h [26]: 21.6 ng/mL | concentration at 7 h [23]: 25 ng/mL | concentration at 7 h [24]: 20.6 ng/mL | concentration at 7 h [25]: 43 ng/mL | concentration at 7 h [26]: 11.4 ng/mL | concentration at 8 h [23]: 18.4 ng/mL | concentration at 8 h [24]: 5.74 ng/mL | concentration at 8 h [25]: 33.4 ng/mL | concentration at 8 h [26]: 16.1 ng/mL | time at which drug levels are sub-therapeutic [18]: < 4 h | time within which drug levels substantially fall [18]: 2 to 3 h | plasma concentration (rats, 10 mg/kg body weight, single rectal administration, up to 8 hours): 35 to 40 ng/mL | time for which therapeutic levels of free idronoxil were maintained in the blood (rectal delivery): at least 8 hours | half-life, rectal relative to oral idronoxil (rectal vs oral): at least 5 times | time for which idronoxil levels remain almost constant (steady-state levels) post administration (rectally-dosed rats): at least 8 hours
